Results from patent publication US8557574B2, “Fungal growth inhibitor” (Seikagaku Corporation, priority 2006, dated 2013).

Experiments:
Candida albicans [1] = assay: Candida growth inhibition by cells after removal of cell surface HA with hyaluronidase (quantitative plate count); assay type: cell-based; settings: various concentrations of hyaluronidase, E:T 80:1, FIG. 2
Experimental: The cells were treated using hyaluronidase (manufactured by Sigma) (50 units/10^6 cells) at 37° C. for 2 hours (J. Oral Sci., 45, p. 85-91 (2003)). The cells after the treatment were washed twice with phosphate buffered saline (pH 7.2, to be referred to as “PBS” hereinafter) and re-suspended in DMEM.
In order to monitor growth inhibition of Candida albicans, a quantitative plate count method was used (J. Infect. Dis., 182, p. 1479-1485 (2000), Infect. Immun., 69, p. 7091-7099 (2001), Med. Mycol., 37, p. 251-259 (1999)). In briefly describing, a co-culture mixture of the same effector and target was incubated at 37° C. for 9 hours under a condition of 5% CO2. […] It was incubated at 30° C. for 48 hours, and the colony forming unit (to be referred to as “CFU” hereinafter) was counted. Hereinafter, counted value of CFU of the sample incubated in the presence of HA is referred to as “test CFU”.
As a control, respective Candida species was incubated in the absence of HA, and this was subjected to the plating in the same manner. Hereinafter, counted value of CFU on the sample is referred to as “control CFU”.
Growth inhibition ratio (%) was calculated from the value of “test CFU” and the value of “control CFU” of its corresponding Candida species based on the following formula. […]

KB cells = assay: MTT assay of hyaluronidase-treated cells; assay type: cell-based, human; settings: hyaluronidase 10, 20 or 100 units/mL, data not shown
Experimental: (§1) Assay of living cells was carried out in the same manner as in the reported reference (Infect. Immun., 69, p. 5925-5930 (2001)).
(§2) In briefly describing, firstly, the COS-7 and KB cells were plated on a 96 well plate at a density of 5×10^5 cells/mL. Hyaluronidase (manufactured by Sigma) haying a respective concentration of 10, 20 or 100 units/mL was added to it, and Candida albicans was cultured for 20 hours. MTT solution (20 μg/mL) was added to each well at the final stage of the culturing, and the contents of the plate were incubated for 4 hours. By adding 100 μL of acidic isopropanol (isopropanol containing 0.04M HCl) to this, the red formazan was eluted and thoroughly mixed. Formazan concentration in the solution of each well was measured by a plate reader (manufactured by Dynex) using 570 nm as the testing wavelength and 620 nm as the reference wave length, respectively.

COS-7 = assay: MTT assay of hyaluronidase-treated cells; assay type: cell-based, Cercopithecus aetiopus; settings: COS-7 cells, hyaluronidase 10, 20 or 100 units/mL; data not shown
Experimental: as §1, §2

Candida albicans [2] = assay: Analysis of the activity of inhibiting Candida growth of HA (absorbance at 660 nm); assay type: cell-based; settings: Candida albicans 5×10^5 cells/mL, 9 hours with HA of various concentration (0.1, 1.0 mg/mL) and weight average molecular weight; FIG. 3
Experimental: Co-culture of HA and Candida was carried out in 100 μl of a medium using a 96 well plate (manufactured by Iwaki). Candida albicans was prepared by growing it at 37° C. overnight in the GP broth under an aerobic condition. The Candida albicans culture mixture was incubated at 37° C. for 9 hours under a condition of 10% CO2 in the presence of various final concentrations (0.1 mg/mL, 1.0 mg/mL) of HA having various sizes (tetradecasaccharide, weight average molecular weight 60 kDa, 250 kDa, 800 kDa or 2,000 kDa).
(§3) After completion of the incubation, in order to evaluate the degree of growth of each Candida species, the culture medium was thoroughly mixed, and its absorbance at a wavelength of 660 nm was measured. Hereinafter, absorbance of the sample incubated in the presence of HA is referred to as “ODtest”. As a control, the absorbance at a wavelength of 660 nm was measured using a sample of each Candida species incubated in the same manner in the absence of HA. Hereinafter, absorbance of this control is referred to as “ODcontrol”.
(§4) Growth inhibition ratio (%) was calculated from the value of “ODtest” and the value of “ODcontrol” of its corresponding Candida species based on the following formula. Growth inhibition ratio (%)=(1−ODtest/ODcontrol)×100 (1-5-2) Quantitative Plate Count […]

[3] = tested on: Candida glabrata ATCC 2001, Candida krusei ATCC 6258 and Candida tropicalis ATCC 4563; assay: Activity of inhibiting growth for various Candida species by HA (absorbance at 660 nm); assay type: cell-based; settings: other Candida species 5×10^5 cells/mL, 9 hours with HA of 2,000 kDa; FIG. 5
Experimental: Additionally, other Candida species (Candida glabrata ATCC 2001, Candida krusei ATCC 6258 and Candida tropicalis ATCC 4563) were prepared by allowing them to grow at 37° C. overnight in the GP broth under an aerobic condition. Culture mixtures of these Candida species (cell density: 5×10^5) were incubated at 37° C. for 9 hours under a condition of 10% CO2 together with various final concentrations (0.1 mg/mL, 1.0 mg/mL) of HA having a weight average molecular weight of 2,000 kDa.
as §3, §4

Candida albicans [4] = assay: Living body staining of Candida species (FDA/PI); assay type: cell-based; settings: conclusion from living body staining
Experimental: Co-culturing of an epithelial cell with a Candida species (effector:target ratio (to be referred to as “E:T” hereinafter) is 20:1, 40:1 or 80:1) was carried out in 100 μl of a medium using a 96 well plate (manufactured by Costar). After 9 hours of incubation, the co-culture mixture was recovered and washed twice. Fluorescein diacetate (which stain living cells, to be referred to as “FDA” hereinafter) (50 μg/mL) and propidium iodide (which stain dead cells, to be referred to as “PI” hereinafter)(1 μg/mL) (both manufactured by Sigma) (Adv. Biochem. Eng. Biotechnol., 62, p. 33-73 (1998), Anal. Chem., 37, p. 1219-1221 (1965)) were simultaneously added to the pellet of cells and incubated at room temperature for 20 minutes in the dark. In this connection, optimum concentrations of the respective pigments were determined by a preliminary test.
After the incubation, the co-culture mixture was washed with PBS and then with PBS containing 20% FCS, respectively, and then again washed with PBS. The pellet was resuspended in 100 μl, of PBS, and a 5 μL thereof was put on a slide glass and observed under a fluorescent phase contrast microscope (DP-70 manufactured by Olympus Corporation). Growth inhibition of Candida species by the epithelial cell was confirmed by 9 hours of a growth inhibition assay. […]

Substance	activity of inhibiting Candida growth of the COS-7 cell after hyaluronidase treatment (Candida albicans [1])	influence upon the life or death of the cells (MTT) (KB cells)	influence upon the life or death of the cells (MTT) (COS-7)	activity of inhibiting the Candida albicans growth (growth inhibition ratio) (Candida albicans [2])	activity of inhibiting growth for other Candida species (growth inhibition ratio) [3]	nature of the activity of inhibiting Candida growth (bactericidal or bacteriostatic) (Candida albicans [4])
hyaluronidase	reduced	does not exert influence upon the life or death of the cells	does not exert influence upon the life or death of the cells	–	–	–
hyaluronic acid [HA]	–	–	–	has activity of inhibiting the Candida albicans growth	exerts its activity of inhibiting growth	not bactericidal but rather bacteriostatic
